System: human umbilical vein endothelial cells (HUVECs)
Assay: Uptake of dye-loaded AScMs in HUVEC monitored by cellular accumulation of fluorescent dyes
Type: cell-based
Description: Methods Amphiphilic scorpion-like macromolecules (AScMs) are block copolymers that form micelles at concentrations above their CMC (5×10^−7 M). The uptake of AScMs was investigated in human umbilical vein endothelial cells (HUVECs) by monitoring cellular accumulation of the fluorescent dyes (R110, R123 and LY, respectively). Briefly, fluorescent dyes were added to AScMs solutions (0.0001-1 mM) and incubated at 37° C. for at least 6 hours prior to cell incubation. After determination of R110, R123 and LY partitioning into the AScMs micelles, dye-loaded AScMs were incubated with HUVEC. Uptake of dye-loaded AScMs was investigated as a function of time (15, 30, 60, 90 and 120 minutes) and AScMs concentration (0.0001-1 mM). Furthermore, intracellular distribution and localization of dye-loaded AScMs in HUVEC was investigated using confocal microscope. […] The decreased accumulation of R110, R123 and LY in HUVEC monolayers was inversely correlated with the extent of their partitioning into AScMs. Uptake of R110, R123 and LY-loaded micelles was also time-dependent. […] Furthermore, confocal microscopy studies confirmed increased fluorescence activity in the cells with increase in the incubation time. […] Thus, AScMs can be used to localize therapeutic compounds into cells, for example, to achieve a sustained therapeutic effect.

[1] = AScMs at concentrations above the CMC
[2] = AScMs at concentrations below the CMC

Structure (SMILES) | dye accumulation in HUVEC monolayers [1] | dye accumulation in HUVEC monolayers [2]
NNC(=O)NN1C(=O)c2cc(S(=O)(=O)[O-])cc3c(N)c(S(=O)(=O)[O-])cc(c23)C1=O.[Li+].[Li+] [LY] | significant decrease | significant increase
Nc1ccc2c(-c3ccccc3C(=O)O)c3ccc(N)cc3[o+]c2c1.[Cl-] [R110] | significant decrease | significant increase
COC(=O)c1ccccc1-c1c2ccc(N)cc2[o+]c2cc(N)ccc12 [R123] | significant decrease | significant increase

— patent US20120022159A1, “AMPHIPHILIC STAR-LIKE OR SCORPION-LIKE MACROMOLECULES, VARIOUS COMPOSITIONS AND USES THEREOF” (priority 2004, published 2012)
